Values quoted from earlier work as cited in publication PMC8592027, “Structure-Guided Design of D-Galactal Derivatives with High Affinity and Selectivity for the Galectin-8 N-Terminal Domain” (ACS Medicinal Chemistry Letters, 2021).

What was measured:
Details in all cases: cited from earlier work
galectin-2 = target: T1, galectin-2 (Homo sapiens, UniProt P05162); set-up: method as in PMID 30117507, PMID 15889175, doi:10.1139/cjc-2015-0598
T1 sequence (P05162 1-132): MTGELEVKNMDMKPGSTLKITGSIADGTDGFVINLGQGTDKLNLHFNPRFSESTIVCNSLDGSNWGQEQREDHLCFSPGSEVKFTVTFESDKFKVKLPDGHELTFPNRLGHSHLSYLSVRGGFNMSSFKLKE

[1] = target: T2, galectin-9N (N-terminal domain) (Homo sapiens, UniProt O00182)
T2 construct: galectins (N = N-terminal domain, C = C-terminal domain); made in house
T2 sequence (O00182 17-148 limits assumed): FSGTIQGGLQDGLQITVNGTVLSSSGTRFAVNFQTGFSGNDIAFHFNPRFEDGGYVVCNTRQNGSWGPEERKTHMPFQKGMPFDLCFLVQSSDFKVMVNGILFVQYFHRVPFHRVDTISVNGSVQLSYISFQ

[2] = target: T3, galectin-9C (C-terminal domain) (Homo sapiens, UniProt O00182)
T3 construct: galectins (N = N-terminal domain, C = C-terminal domain); made in house
T3 sequence (O00182 227-355 limits assumed): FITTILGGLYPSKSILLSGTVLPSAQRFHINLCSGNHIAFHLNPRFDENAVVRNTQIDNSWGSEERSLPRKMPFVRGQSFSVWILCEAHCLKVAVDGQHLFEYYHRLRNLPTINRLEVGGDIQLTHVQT

CO[C@@H]1O[C@H](CO)[C@H](O)[C@H](O)[C@H]1O [methyl β-D-galactoside]
Kd (galectin-2): 13 mM | Kd [1]: 3.3 mM | Kd [2]: 8.6 ± 7.31 mM
